Data on 22 molecules can be found in PMC3538727, “Design, Synthesis and Biological Evaluation of Novel Piperazine Derivatives as CCR5 Antagonists” (PLoS ONE, 2013).

One data set concerns the target T1, CCR5 (Homo sapiens, UniProt P51681).
T1 construct: expressed in transfected cells
Kind of data set: Cell-cell fusion assay (CCF assay, CCR5-mediated fusion). In kind it is cell-based. The following applies: for inhibition at 10 µM: CCR5, read-out: inhibition rate (10 µM), CCR5 fusion activity; for inhibition at 10 µM / IC50 / inhibition rate (10 µM), CCR5 fusion activity: mean of at least two experiments, DMSO as negative control; for fold loss of CCR5 fusion potency in comparison to 9e: relative to 9e. The source says:
A total of 21 novel piperazine derivatives 9a–h, 13a–d, 17, and 23a–h were screened for their inhibitory activity against cell-cell fusion between target cells expressing CD4/CCR5 and effector cells expressing the envelope protein of HIV-1, gp-120 (fusion assay).
Effector cell line: This cell line express HIV envelope protein gp160 and chimera protein Rn-Dn. Rn-Dn is consist of the N terminal of renilla luciferase and the N terminal of DnaE intein from Anacystis nidulans R2 PCC7942.
Target cell line: This cell line express chemokine receptor 5(CCR5), CD4 protein and chimera protein Dc-Rc. Dc-Rc is consist of the C teminal of renilla luceferase and the C teminal of NnaE intein from Anacystis nidulans R2 PCC7942.
The cell-cell fusion assay was performed as described previously.The effector cells were plated in 24 well white culture plates at 7.5×10^4 cell per well in DMEM supplemented with 10% FBS, 800 µg/mL G418. The target cells in the growth medium were then added to the plates at 7.5×10^4 cells/50 µL/well and incubated for 5 hours. At the end of coculture, 70 µL of renilla luceferase assay lysis was added into each well, and the cultures were gently shaken for 15 min. At the same time, add 20 µl of Renilla Luciferase Assay Reagent to the luminometer tube. Add 20 µl of cell lysate to the tube. Mix quickly by flicking the tube for 1 second. Place the tube in FB12 luminometer and initiate measurement. Luminescence was integrated over 1 second with a 2-second delay. When small molecule compounds needed to be added to the CCF assay system, the compounds were diluted manually in DMSO. Then, 10 µL of the diluted compounds was added to the effector cells just before the addition of target cells, thus making the final concentration of DMSO in the coculture 0.5%.

Data set [1] has as its system recombinant HIV-1 virus pseudotyped with the envelope proteins of the CCR5-tropic virus. Nature of the data set: microbe, parasite or virus in culture. In kind it is cell-based. The following applies: for inhibition at 10 µM: Human immunodeficiency virus 1, SUP-T1, read-out: inhibition rate (10 µM), antiviral activity. How it is done:
Fluorophenyl analogs 9e–g, phenyl, chlorophenyl, and trifluorophenyl analog 23a–c, and cyclohexyl analog 23 h were evaluated for their anti-HIV activity using a recombinant HIV-1 virus pseudotyped with the envelope proteins of the CCR5-tropic virus (HIV-1 single cycle antiviral assay). For overall estimation of the therapeutic potential of these novel CCR5 antagonists, maraviroc was used as a positive control.
HIV-1 proviral indicator construct pNL-Luc-E- contains a full-length HIV-1 genome, in which env was replaced by firefly Luciferase coding sequence. pENV-Ad8 expresses R5-tropic envelope (AD8).
Single-cycle HIV-1 replication assays were performed as described previously. In brief, 4×10^5 293T cells were co-transfected with 0.4 µg of pNL-Luc-E- and 0.4 µg of pENV-R5. After 48h, the supernatant containing pseudovirion was harvested by filtration through a 0.45 µm filter and the amount of viral capsid protein was measured by p24 antigen capture ELISA (Biomerieux). The resultant supernatant (10 µL) was used to infect SupT1 cells (1×10^5) in 96-well plates in the presence of testing compound at the concentration indicated. The SupT1 cells were lysed 48h post-infection and firefly luciferase activities were determined using a firefly Luciferase Assay System (Promega). Values were normalized to the control group treated with DMSO, and represented relative infectivity of each sample testing.

Where [2] appears, read: mean of two experiments, DMSO as negative control.

“Also recorded” adds a separate entry of the source. Where two headings read alike, the source gives them in different places.

T1 sequence (P51681 whole entry): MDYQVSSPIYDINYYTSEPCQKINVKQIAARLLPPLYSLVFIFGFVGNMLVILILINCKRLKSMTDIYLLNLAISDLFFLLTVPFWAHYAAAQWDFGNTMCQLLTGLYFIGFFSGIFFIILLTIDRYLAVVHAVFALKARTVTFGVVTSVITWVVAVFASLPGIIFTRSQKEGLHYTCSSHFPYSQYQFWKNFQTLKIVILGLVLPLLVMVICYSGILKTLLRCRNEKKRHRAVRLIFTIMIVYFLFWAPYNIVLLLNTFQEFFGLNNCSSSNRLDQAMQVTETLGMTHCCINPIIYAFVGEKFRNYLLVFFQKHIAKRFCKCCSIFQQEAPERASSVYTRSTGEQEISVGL

Broadly, the melting point is the temperature of the solid-liquid transition. The term inhibition denotes the relative decrease from the control value, in per cent. The molecule `Cc1ccc(N2CCN(CCC(NC(=O)c3ccccc3)c3ccccc3)CC2)cc1` (centres unmarked) [Compound 9a] yielded a melting point of 165 to 167 °C. On CCR5, the inhibition at 10 µM is 47%.
The corresponding values for `Cc1ccc(N2CCN(CCC(NC(=O)c3ccc(F)cc3)c3ccccc3)CC2)cc1` (centres unmarked) [Compound 9b] are 171 to 173 °C and 35%.
As to `O=C(NC(CCN1CCN(c2ccc(F)cc2)CC1)c1ccccc1)c1ccc(F)cc1` (centres unmarked) [Compound 9c], the melting point is 157 to 159 °C. Also, the inhibition at 10 µM on CCR5 was 41%.
With `O=C(NC(CCN1CCN(c2ccc(F)cc2)CC1)c1ccccc1)c1ccccc1` (centres unmarked) [Compound 9d], the melting point lay within 152 to 154 °C. In addition, the inhibition at 10 µM at CCR5 came to 26%.
For orientation: IC50 means the point on the concentration scale where inhibition reaches its midpoint. The molecule `N#Cc1ccc(N2CCN(CCC(NC(=O)c3ccc(F)cc3)c3ccccc3)CC2)cc1` (centres unmarked) [Compound 9e] had a melting point of 160 to 162 °C. Besides, in data set [1] (setting [2]), the “inhibition rate (10 µM), antiviral activity” value is reported as “weak anti-HIV activity”. Besides, the inhibition at 10 µM in data set [1] was 23.8%. Also, 0.64 µM corresponded to half-maximal inhibition at CCR5 (IC50).
In turn, `N#Cc1ccc(N2CCN(CCC(NC(=O)c3ccc(F)cc3)c3ccc(Cl)cc3)CC2)cc1` (centres unmarked) [Compound 9f] returned a melting point of 121 to 123 °C. Further, the “inhibition rate (10 µM), antiviral activity” value in data set [1] (setting [2]) is “inactive”. Further, at CCR5, the half-maximal inhibitory concentration (IC50) worked out at 3.7 µM and the “fold loss of CCR5 fusion potency in comparison to 9e” value (“fold loss of CCR5 fusion potency” below) is 5 fold.
As for `N#Cc1ccc(N2CCN(CCC(NC(=O)c3ccc(F)cc3)c3ccc(Cl)c(Cl)c3)CC2)cc1` (centres unmarked) [Compound 9g], the melting point fell in the range of 85 to 88 °C. The inhibition at 10 µM in data set [1] is 2.9%. Also, on CCR5, the IC50 is 10 µM and the “fold loss of CCR5 fusion potency” value was “more than 15 fold”.
Take `NC(=O)c1ccc(N2CCN(CCC(NC(=O)c3ccc(F)cc3)c3ccccc3)CC2)cc1` (centres unmarked) [Compound 9h]: the inhibition at 10 µM on CCR5 came out at 20%.
The molecule `N#CCc1ccc(N2CCN(CCC(NC(=O)c3ccc(F)cc3)c3ccccc3)CC2)cc1` (centres unmarked) [Compound 13a] came in with a melting point of 115 to 119 °C. The “inhibition rate (10 µM), CCR5 fusion activity” value against CCR5 was “inactive”.
Regarding `N#Cc1ccc(C(=O)N2CCN(CCC(NC(=O)c3ccc(F)cc3)c3ccccc3)CC2)cc1` (centres unmarked) [Compound 13b], the melting point fell in the range of 80 to 84 °C. Besides, the inhibition at 10 µM on CCR5 was determined as 22%.
As for `N#Cc1ccc(CN2CCN(CCC(NC(=O)c3ccc(F)cc3)c3ccccc3)CC2)cc1` (centres unmarked) [Compound 13c], the melting point is 83 to 87 °C. In addition, the “inhibition rate (10 µM), CCR5 fusion activity” value against CCR5 is “inactive”.
With `N#Cc1ccc(N2CCN(C(=O)CC(NC(=O)c3ccc(F)cc3)c3ccccc3)CC2)cc1` (centres unmarked) [Compound 13d, N-(3-(4-(4-cyanophenyl)piperazin-1-yl)-3-oxo-1-phenylpropyl)-4-fluoro-benzamide], the melting point was in the range of 98 to 102 °C. Besides, the inhibition at 10 µM at CCR5 worked out at 25%.
`N#Cc1ccc(N2CCN(CCCN(C(=O)c3ccc(F)cc3)c3ccccc3)CC2)cc1` [Compound 17, N-(3-(4-(4-cyanophenyl)piperazin-1-yl)propyl)-4-fluoro-N-phenylbenzamide] displayed a melting point of 82 to 84 °C. Moreover, on CCR5, the “inhibition rate (10 µM), CCR5 fusion activity” value was “inactive”.
In turn, `N#Cc1ccc(N2CCN(CCC(NC(=O)c3ccccc3)c3ccccc3)CC2)cc1` (centres unmarked) [Compound 23a] returned a melting point of 152 to 155 °C. Further, in data set [1], the inhibition at 10 µM stood at 28.9%. Further, on CCR5, it took 2.44 µM to reach half-maximal inhibition (IC50) and the “fold loss of CCR5 fusion potency” value was determined as 4 fold.
The corresponding values for `N#Cc1ccc(N2CCN(CCC(NC(=O)c3ccc(Cl)cc3)c3ccccc3)CC2)cc1` (centres unmarked) [Compound 23b] are 143 to 145 °C, 29.9%, 2.87 µM and 5 fold.
Take `N#Cc1ccc(N2CCN(CCC(NC(=O)c3ccc(C(F)(F)F)cc3)c3ccccc3)CC2)cc1` (centres unmarked) [Compound 23c]: the melting point lay within 158 to 160 °C. Further, in data set [1], the inhibition at 10 µM is 24.6%. On CCR5, the midpoint of inhibition, the IC50, lay at 10 µM and the “fold loss of CCR5 fusion potency” value turned out to be 15 fold.
Take `CC(C)c1ccc(C(=O)NC(CCN2CCN(c3ccc(C#N)cc3)CC2)c2ccccc2)cc1` (centres unmarked) [Compound 23d]: the melting point was 155 to 158 °C. The inhibition at 10 µM on CCR5 was 20%.
Regarding `CC(=O)N1CCC(C(=O)NC(CCN2CCN(c3ccc(C#N)cc3)CC2)c2ccccc2)CC1` (centres unmarked) [Compound 23e], the melting point was 100 to 105 °C. The “inhibition rate (10 µM), CCR5 fusion activity” value against CCR5 was “complete loss in fusion activity; also recorded: inactive”.
In turn, `N#Cc1ccc(N2CCN(CCC(NC(=O)C3CCN(C(=O)c4ccccc4)CC3)c3ccccc3)CC2)cc1` (centres unmarked) [Compound 23f] gave a melting point of 121 to 124 °C. Further, the inhibition at 10 µM at CCR5 stood at 15%.
In the case of `N#Cc1ccc(N2CCN(CCC(NC(=O)c3ccco3)c3ccccc3)CC2)cc1` (centres unmarked) [Compound 23g], the melting point is 132 to 136 °C. Moreover, the “inhibition rate (10 µM), CCR5 fusion activity” value against CCR5 is “inactive”.
For the molecule `N#Cc1ccc(N2CCN(CCC(NC(=O)C3CCCCC3)c3ccccc3)CC2)cc1` (centres unmarked) [Compound 23h], the half-maximal inhibitory concentration (IC50) in data set [1] (Human immunodeficiency virus 1, SUP-T1, read-out: IC50 (µM), antiviral activity) is 0.44 µM; against CCR5, 6.29 µM. Besides, in data set [1], the inhibition at 10 µM was determined as 66.5%.
For the molecule maraviroc [reference compound], in data set [1] (setting [2]), the “inhibition rate (10 µM), antiviral activity” value turned out to be 96.8%. Also, in data set [1] (read-out: IC50 (µM), antiviral activity, mean of two experiments, DMSO as negative control), the IC50 was found to be 0.0011 µM.
